In patent publication US20140120083A1, “TREATMENT OF CANCERS USING PI3 KINASE ISOFORM MODULATORS” (INFINITY PHARMACEUTICALS, INC., priority 2012, published 2014):
Values joined by “and” are separate entries in the source; they are usually repeats but may differ in a detail not shown here. Equal values may be shown once. “Also recorded” adds a separate entry of the source.

Tests used:
[1] = Plasma protein binding, rat; format: in vitro ADME; conditions: 100 μM (41700 ng/mL)
Description: (§1) […]. […] […].

[2] = Plasma protein binding, human; format: in vitro ADME; conditions: 100 μM (41700 ng/mL)
Description: as §1

[3] = system: hemodynamic and electrocardiographic parameters; assay: Cardiovascular telemetry study; format: in vivo, cynomolgus monkey; conditions: male monkeys
Description: Four non-naive, male monkeys implanted with radiotelemetry transmitters were utilized during the conduct of this study.

[4] = Pharmacokinetics, mouse; format: in vivo, BALB/c mice
[5] = Pharmacokinetics, monkey; format: in vivo, Cynomolgus monkeys
[6] = Tissue distribution of radiolabelled compound; format: in vivo; conditions: rat, radiolabelled Compound 292, majority of tissues
[7] = target: T1, human P-glycoprotein (Homo sapiens, UniProt P08183); assay: Interaction with P-glycoprotein, Caco-2; format: in vitro ADME; conditions: Caco-2 cell monolayers
T1 construct: endogenous in cells; host or cells: Caco-2

[8] = Phase 1 study in advanced hematologic malignancies, pharmacokinetics; format: in vivo, human; conditions: patients
Method: (§2) PK and PD markers were evaluated after the first dose (e.g., 8 mg BID) and at steady state. PD activity (PI3K inhibition) in whole blood was evaluated using a basophil activation assay which measured reduction in CD63 expression on the surface of basophils following ex vivo stimulation.

[9] = system: PI3K-δ and PI3K-γ; assay: Phase 1 study in advanced hematologic malignancies, pharmacodynamics; format: in vivo, human
Method: as §2

[10] = In vivo rat micronucleus assay
[11] = In vitro genetic toxicity studies
[12] = system: respiratory system; assay: Respiratory study (plethysmography); conditions: male rats, single oral dose up to 350 mg/kg
[13] = 13-week repeat-dose safety study, rat
[14] = system: central nervous system; assay: Neurofunctional study (FOB, motor activity); conditions: male rats
[15] = Embryo/fetal developmental toxicity, rabbit
[16] = Clinical study in healthy adult subjects, safety
[17] = Phase 1 study in advanced hematologic malignancies, safety
[18] = multiple doses for 2 weeks (n=36)

T1 sequence (P08183 whole entry): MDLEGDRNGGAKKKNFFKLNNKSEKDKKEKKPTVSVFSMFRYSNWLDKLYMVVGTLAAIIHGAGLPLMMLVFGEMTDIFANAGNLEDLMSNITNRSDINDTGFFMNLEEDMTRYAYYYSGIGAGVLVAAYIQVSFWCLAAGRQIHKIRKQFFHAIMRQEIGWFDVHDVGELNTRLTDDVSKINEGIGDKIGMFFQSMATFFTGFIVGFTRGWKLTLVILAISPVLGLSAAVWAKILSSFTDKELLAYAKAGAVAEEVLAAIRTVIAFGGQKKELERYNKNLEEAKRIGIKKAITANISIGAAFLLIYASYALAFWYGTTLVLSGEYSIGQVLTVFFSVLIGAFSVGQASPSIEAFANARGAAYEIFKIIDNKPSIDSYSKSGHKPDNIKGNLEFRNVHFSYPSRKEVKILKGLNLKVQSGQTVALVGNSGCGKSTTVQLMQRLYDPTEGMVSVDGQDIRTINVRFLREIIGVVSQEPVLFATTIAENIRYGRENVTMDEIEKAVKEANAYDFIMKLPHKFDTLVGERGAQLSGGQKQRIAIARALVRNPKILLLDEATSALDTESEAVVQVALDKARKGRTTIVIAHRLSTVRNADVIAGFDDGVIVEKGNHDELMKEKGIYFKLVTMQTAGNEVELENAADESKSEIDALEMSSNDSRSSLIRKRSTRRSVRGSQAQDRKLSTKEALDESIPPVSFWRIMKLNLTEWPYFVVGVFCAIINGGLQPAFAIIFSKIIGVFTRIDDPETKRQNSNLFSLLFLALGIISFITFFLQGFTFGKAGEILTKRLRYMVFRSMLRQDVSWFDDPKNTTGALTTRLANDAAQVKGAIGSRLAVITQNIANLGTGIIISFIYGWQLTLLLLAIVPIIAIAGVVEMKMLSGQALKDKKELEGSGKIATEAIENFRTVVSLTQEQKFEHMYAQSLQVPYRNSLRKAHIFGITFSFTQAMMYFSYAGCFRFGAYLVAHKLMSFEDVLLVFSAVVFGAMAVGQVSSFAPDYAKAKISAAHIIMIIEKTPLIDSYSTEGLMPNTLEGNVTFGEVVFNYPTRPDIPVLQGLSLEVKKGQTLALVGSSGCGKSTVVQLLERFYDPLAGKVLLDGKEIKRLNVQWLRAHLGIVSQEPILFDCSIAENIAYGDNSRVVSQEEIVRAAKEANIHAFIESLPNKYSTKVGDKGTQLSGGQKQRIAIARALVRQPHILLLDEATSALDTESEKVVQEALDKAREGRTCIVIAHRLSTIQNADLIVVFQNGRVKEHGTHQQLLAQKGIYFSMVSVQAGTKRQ

C[C@H](Nc1ncnc2[nH]cnc12)c1cc2cccc(Cl)c2c(=O)n1-c1ccccc1 [Compound 292]
protein bound [1]: 85.8% | protein bound [2]: 85.9% | hemodynamic or electrocardiographic parameters ([3]; single oral dose of 5, 30, and 150 mg/kg): No Compound 292-related effects | waveform abnormalities or arrhythmias ([3]; up to 150 mg/kg oral): no waveform abnormalities or arrhythmias | half-life [4]: less than 2 hrs | AUC(0-inf) ([4]; BALB/c, in vivo, IV, 10 mg/kg): 1900 ng·h/mL | AUC(0-t) ([4]; BALB/c, in vivo, IV, 10 mg/kg): 1900 ng·h/mL | Cmax ([4]; BALB/c, in vivo, IV, 10 mg/kg): 5560 ng/mL | Tmax ([4]; BALB/c, in vivo, IV, 10 mg/kg): 4.98 min | clearance ([4]; BALB/c, in vivo, IV, 10 mg/kg): 87.5 mL/min/kg | half-life ([4]; BALB/c, in vivo, IV, 10 mg/kg, read-out: T1/2 (converted)): 13.2 min | Vd ([4]; BALB/c, in vivo, IV, 10 mg/kg, read-out: Vss): 1.14 L/kg | AUC(0-t) ([4]; BALB/c, in vivo, PO, 10 mg/kg): 137 ng·h/mL | Cmax ([4]; BALB/c, in vivo, PO, 10 mg/kg): 390 ng/mL | Tmax ([4]; BALB/c, in vivo, PO, 10 mg/kg): 4.98 min | Foral ([4]; PO, 10 mg/kg, calculated using AUC0-last): 7% and 7^i % | clearance ([5]; monkey): low to moderate | volume of distribution ([5]; monkey): high | AUC0-last ([5]; monkey, IV, 1 mg/kg): 2357 ng·h/mL | AUC(0-inf) ([5]; monkey, IV, 1 mg/kg): 2379 ng·h/mL | Cl ([5]; monkey, IV, 1 mg/kg): 0.43 L/h/kg | Cmax ([5]; monkey, IV, 1 mg/kg): 1545 ng/mL | T1/2 ([5]; monkey, IV, 1 mg/kg): 5.0 h | Tmax ([5]; monkey, IV, 1 mg/kg): 4.98 min | Vss ([5]; monkey, IV, 1 mg/kg): 1.27 L/kg | AUC0-last ([5]; monkey, PO, 5 mg/kg): 4596 ng·h/mL | AUC(0-inf) ([5]; monkey, PO, 5 mg/kg): 4685 ng·h/mL | Cmax ([5]; monkey, PO, 5 mg/kg): 1327 ng/mL | Foral ([5]; monkey, PO, 5 mg/kg): 40% | T1/2 ([5]; monkey, PO, 5 mg/kg): 5.4 h | Tmax ([5]; monkey, PO, 5 mg/kg): 90 min | half-life ([5]; monkeys): 5 h | radioactivity in tissues at 24 hr [6]: without quantifiable levels of radioactivity | P-gp substrate [7]: is a P-gp substrate | inhibition of P-gp transport [7]: has the potential to inhibit the active transport of other P-gp substrates | half-life ([8]; human, in vivo, oral, read-out: eliminating t1/2): 360 to 600 min | doses with mean steady-state trough above levels sufficient for PI3K-δ inhibition [8]: > 15 mg BID | plasma Cmax and AUC over the dose range ([8]; 8-50 mg BID): dose-proportional increases | PK profile ([8]; through 50 mg BID): linear | AKT phosphorylation in CLL/SLL cells ([9]; flow cytometry, after one dose (25 mg)): rapid and sustained inhibition | doses achieving complete inhibition of PI3K-δ ([9]; patients): ≥ 15 mg BID | doses increasingly suppressing PI3K-γ ([9]; patients): ≥ 25 mg BID | rat micronucleus assay [10]: no direct adverse effect | genetic toxicity [11]: no genetic toxicity | respiratory parameters (respiratory rate, tidal volume, minute volume) [12]: no Compound 292-related effects | NOAEL ([13]; 13-week rat study, oral gavage): 150 mg/m^2/day | NOAEL at 13 weeks ([13]; both, rat, in vivo, po): 25 mg/kg/day | mean AUC0-24 hr at the NOAEL ([13]; rat, Day 91, combined sexes): 14150 ng·h/mL | locomotor activity ([14]; 2 h after a 350 mg/kg oral dose): Significant decreases | effects on the central nervous system ([14]; dose levels≦50 mg/kg): No effects | qualitative or quantitative FOB parameters ([14]; single oral dose up to 350 mg/kg, up to 24 h post-dose): no changes | NOAEL ([15]; female, rabbit, in vivo): 75 mg/kg/day | mean AUC0-24 hr at the NOAEL ([15]; pregnant rabbits, last day of dosing): 66200 ng·h/mL | maternal and fetal NOAEL ([15]; rabbit): 900 mg/m^2/day | IgE ([16]; healthy subjects): No increases | deaths and serious adverse events ([16]; healthy subjects): no deaths and no serious adverse events | safety laboratory or ECG abnormalities ([16]; healthy subjects): No clinically significant safety laboratory or electrocardiogram (ECG) abnormalities | QTcF greater than 500 msec ([16]; healthy subjects, serial ECGs): No subject | largest change from baseline in QTcF ([16]; healthy subjects, serial ECGs): 37 ms | tolerability ([16]; healthy subjects, single doses up to 30 mg, up to 10 mg daily for 14 days): well tolerated; also recorded: well-tolerated | headache [16, 18]: 8% | myalgia [16, 18]: 6% | nasopharyngitis [16, 18]: 6% | dose limiting toxicity ([17]; 15 mg BID dose cohort): Grade 4 neutropenia | AE Leading to Discontinuation ([17]; 25 mg BID (n = 34)): 2 n | Any AE ([17]; 25 mg BID (n = 34)): 27 n | Any AE Grade 3 ([17]; 25 mg BID (n = 34)): 7 n | Any AE Grade 4 ([17]; 25 mg BID (n = 34)): 5 n | Deaths on Study ([17]; 25 mg BID (n = 34)): 0 n | Dose Reduced (New Grade 3/4 ALT) ([17]; 25 mg BID (n = 34)): 3 n | Dose Reduced (New Grade 3/4 ANC) ([17]; 25 mg BID (n = 34)): 2 n | New Grade 3 ALT ([17]; 25 mg BID (n = 34)): 3 n | New Grade 3 ANC ([17]; 25 mg BID (n = 34)): 2 n | New Grade 4 ANC ([17]; 25 mg BID (n = 34)): 4 n | Related AE ([17]; 25 mg BID (n = 34)): 18 n | Related Grade 3 AE ([17]; 25 mg BID (n = 34)): 4/4 n | Related Grade 4 AE ([17]; 25 mg BID (n = 34)): 4/4 n | SAE ([17]; 25 mg BID (n = 34)): 4 n | dose limiting toxicity ([17]; 75 mg BID): Grade 3 cellulitis | new Grade>3 neutropenia, n (%) ([17]; 20 patients, 8-50 mg BID): 6 (30%) | new Grade>3 thrombocytopenia, n (%) ([17]; 20 patients, 8-50 mg BID): 1 (5%) | patients with AEs Grade>3 ([17]; 20 patients, 8-50 mg BID): 7 (35%) | patients with adverse events ([17]; 20 patients, 8-50 mg BID): 13 (65%) | patients with treatment-related AEs ([17]; 20 patients, 8-50 mg BID): 11 patients | patients with treatment-related AEs Grade>3 ([17]; 20 patients, 8-50 mg BID): 5 patients | Grade 3 ALT/AST elevations, n (%) ([17]; 20 patients, 8-50 mg BID, MM patient): 1 (5%) | AE Leading to Discontinuation ([17]; Safety Population (n = 55)): 3 n | Any AE ([17]; Safety Population (n = 55)): 46 n | Any AE Grade 3 ([17]; Safety Population (n = 55)): 18 n | Any AE Grade 4 ([17]; Safety Population (n = 55)): 8 n | Deaths on Study ([17]; Safety Population (n = 55)): 3 n | Dose Reduced (New Grade 3/4 ALT) ([17]; Safety Population (n = 55)): 6 n | Dose Reduced (New Grade 3/4 ANC) ([17]; Safety Population (n = 55)): 5 n | New Grade 3 ALT ([17]; Safety Population (n = 55)): 5 n | New Grade 3 ANC ([17]; Safety Population (n = 55)): 10 n | New Grade 4 ANC ([17]; Safety Population (n = 55)): 5 n | Related AE ([17]; Safety Population (n = 55)): 31 n | Related Grade 3 AE ([17]; Safety Population (n = 55)): 14 n | Related Grade 4 AE ([17]; Safety Population (n = 55)): 6 n | SAE ([17]; Safety Population (n = 55)): 11 n | MTD ([17]; after dose escalation to 75 mg BID): not yet reached | tolerability ([17]; patients with advanced hematologic malignancies): well tolerated; also recorded: well-tolerated
